Measurements from publication PMC7272432, “Amyloid Aggregation of Insulin: An Interaction Study of Green Tea Constituents” (Scientific Reports, 2020).

Target: T1, human insulin (Homo sapiens, UniProt P01308)
T1 construct: gene INS; Human insulin (I2643, recombinant, expressed in yeast); 51 amino acids divided into two chains
Assay: ThT fluorescence assay of insulin amyloid aggregation ([…] insulin, pH […] °C), supported by kinetics, AFM and ATR-FTIR
Type: biochemical

T1 sequence (P01308 25-54): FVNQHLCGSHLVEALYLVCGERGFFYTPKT
T1 sequence (P01308 90-110): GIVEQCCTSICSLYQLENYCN

`O=C(O[C@@H]1Cc2c(O)cc(O)cc2O[C@@H]1c1cc(O)c(O)c(O)c1)c1cc(O)c(O)c(O)c1` [EGCG, (-)-epigallocatechin gallate] gave an IC50 of 476 ± 32.5 µM.
